Assays:
glioblastoma tumor = experiment: Glioblastoma tumor size after irradiation with 50x50 microbeam array (Example 2) followed by cisplatin; assay type: in vivo; conditions: Cisplatin administered within 30 min to 1 h after irradiation with 50x50 microbeam array
From the text: In this example, CAM were irradiated at the biomedical beamline of ESRF. The generation and preparation of the microbeams occurred basically in the same manner as described in Example 1 according to a second preferred embodiment with the substantially circular cross-section of each microbeam. The difference here however is that behind the multi-slit collimator a second collimator (such as an Archer variable multi-slit collimator) was placed into the path of the first array of microbeams formed by the first collimator. […] A GafChromic radiochromic film type […] But in Example 2 the irradiation rather punctures the tissue. Therefore, the level of exposure of the irradiated tissue is even less lethal and results in a […] chemotherapeutic window (compared to FIG. 4).

[1] = tested on: U-87 MG human glioblastoma xenographs; experiment: Tumor volume in U-87 MG human glioblastoma xenografts after microbeam radiation (fan-like array) and/or cisplatin; assay type: in vivo, Balb/c nude mice

`N.N.[Cl][Pt][Cl]` [Cisplatin, cisplatin] was tested. Which “glioblastoma tumor sizes after treatment” value (glioblastoma tumor) did it give?
The value was “progressive and significant decrease”.

And the “tumor sizes after treatment (tumor volume, FIG. 8a)” value ([1]; double treatment (DT): Cisplatin administered after the MR procedure, within window of increased vascular permeability)?
The value was “progressive and significant decrease”.

What about the “tumor sizes after treatment (tumor volume, FIG. 8a)” value ([1]; only Cisplatin, single chemotherapeutic treatment, no irradiation) of the same compound?
Its value is “gradual increase in size”.

From US9649298B2, “Cytotoxic substance for use in combination with radiotherapy in cancer treatment” (Fumedica AG, priority 2013, dated 2017)
